Experimental data taken from patent US12594276B2, “Inhibitors of human immunodeficiency virus replication” (ViiV Healthcare UK (No.5) Limited, priority 2024, dated 2026).

What was measured:
[1] = Compound cytotoxicity, XTT-based colorimetric assay; assay type: cell-based; details: human; uninfected MT2 cells, day 4, XTT; read-out: CC50
Procedure: Compound cytotoxicity and the corresponding CC50 values were determined using the same protocol as described in the antiviral assay except that uninfected cells were used. Cytotoxicity was assessed on day 4 in uninfected MT2 cells by using an XTT (2,3-bis[2-Methoxy-4-nitro-5-sulfophenyl]-2H-tetrazolium-5-carboxyanilide inner salt)-based colorimetric assay (Sigma-Aldrich, St Louis, Mo).

[2] = tested on: recombinant NL4-3 virus (nef section replaced with Renilla luciferase gene) in MT-2 cells; test: HIV cell culture assay (antiviral activity, luciferase readout); assay type: cell-based; details: Renilla, NL43, MT-2 cells infected for 4-5 days with recombinant NL4-3 Renilla luciferase virus
Procedure, shortened: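 MT-2 cells were infected for 4-5 days with reporter virus made by transfecting the recombinant NL4-3 proviral clone into 293T cells, in the presence of serial compound dilutions. Luciferase activity was read with a live-cell substrate. EC50 came from the exponential median effect equation, (Fa)=1/[1+(ED50/drug conc.)m].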

Structure (SMILES)	CC50 at 4 days [1] [nM]	EC50 [2] [nM]
Cc1cc(C2(F)CCC(F)(F)CC2)nc2nc([C@H](Cc3cc(F)cc(F)c3)NC(=O)Cn3nc(C4CC4)c4c3C[C@@H]3C[C@H]43)n(-c3ccc(Cl)c4c(NS(C)(=O)=O)nn([C@@H](C)CN5C[C@@H](C)O[C@@H](C)C5)c34)c(=O)c12 (relative stereo) [Example 748, N-[(1S)-1-[(3P)-3-{4-chloro-1-[(2S)-1-[(2R,6S)-2,6-dimethylmorpholin-4-yl]propan-2-yl]-3-methanesulfonamido-1H-indazol-7-yl}-5-methyl-4-oxo-7-(1,4,4-trifluorocyclohexyl)-3H,4H-pyrido[2,3-d]pyrimidin-2-yl]-2-(3,5-difluorophenyl)ethyl]-2-[(2R*,4R*)-9-cyclopropyl-7,8-diazatricyclo[4.3.0.0^2,^4]nona-1(6),8-dien-7-yl]acetamide]	> 20	0.024
COCCCn1nc(NS(C)(=O)=O)c2c(Cl)ccc(-n3c([C@H](Cc4cc(F)cc(F)c4)NC(=O)Cn4nc(C(F)F)c5c4C(F)(F)[C@@H]4C[C@H]54)nc4nc(C5CCC(F)(F)CC5)cc(NC[C@@H]5CCCOC5)c4c3=O)c21 (atropisomer, axis not shown; (P)) [Example 428, N-[(1S)-1-[(3P)-3-[4-chloro-3-methanesulfonamido-1-(3-methoxypropyl)-1H-indazol-7-yl]-7-(4,4-difluorocyclohexyl)-5-({[(3S)-oxan-3-yl]methyl}amino)-4-oxo-3H,4H-pyrido[2,3-d]pyrimidin-2-yl]-2-(3,5-difluorophenyl)ethyl]-2-[(2S,4R)-9-(difluoromethyl)-5,5-difluoro-7,8-diazatricyclo[4.3.0.0^2,^4]nona-1(6),8-dien-7-yl]acetamide]	> 20	0.02
CCNc1cc(C2CCC(F)(F)CC2)nc2nc([C@H](Cc3cc(F)cc(F)c3)NC(=O)Cn3nc(C4CC4)c4c3C[C@@H]3C[C@H]43)n(-c3ccc(Cl)c4c(NS(C)(=O)=O)nn(CCCOC)c34)c(=O)c12 (atropisomer, axis not shown; (P)) [Example 601, N-[(1S)-1-[(3P)-3-[4-chloro-3-methanesulfonamido-1-(3-methoxypropyl)-1H-indazol-7-yl]-7-(4,4-difluorocyclohexyl)-5-(ethylamino)-4-oxo-3H,4H-pyrido[2,3-d]pyrimidin-2-yl]-2-(3,5-difluorophenyl)ethyl]-2-[(2S,4S)-9-cyclopropyl-7,8-diazatricyclo[4.3.0.0^2,^4]nona-1(6),8-dien-7-yl]acetamide]	> 20	0.008
Cc1cc(C2CCC(F)(F)CC2)nc2nc([C@H](Cc3cc(F)cc(F)c3)NC(=O)Cn3nc(C(F)F)c4c3C(F)(F)[C@@H]3C[C@H]43)n(-c3ccc(Cl)c4c(NS(C)(=O)=O)nn(CCOC(C)C)c34)c(=O)c12 (atropisomer, axis not shown; (P)) [Example 59, N-[(1S)-1-[(3P)-3-{4-chloro-3-methanesulfonamido-1-[2-(propan-2-yloxy)ethyl]-1H-indazol-7-yl}-7-(4,4-difluorocyclohexyl)-5-methyl-4-oxo-3H,4H-pyrido[2,3-d]pyrimidin-2-yl]-2-(3,5-difluorophenyl)ethyl]-2-[(2S,4R)-9-(difluoromethyl)-5,5-difluoro-7,8-diazatricyclo[4.3.0.0^2,^4]nona-1(6),8-dien-7-yl]acetamide]	> 50	0.011
Cc1cc(C2(F)CCC(F)(F)CC2)nc2nc([C@H](Cc3cc(F)cc(F)c3)NC(=O)Cn3nc(C(F)F)c4c3C(F)(F)[C@@H]3C[C@H]43)n(-c3ccc(Cl)c4c(NS(C)(=O)=O)nn([C@@H](C)CN5C[C@@H](C)O[C@@H](C)C5)c34)c(=O)c12 (atropisomer, axis not shown; (P)) [Example 747, N-[(1S)-1-[(3P)-3-{4-chloro-1-[(2S)-1-[(2R,6S)-2,6-dimethylmorpholin-4-yl]propan-2-yl]-3-methanesulfonamido-1H-indazol-7-yl}-5-methyl-4-oxo-7-(1,4,4-trifluorocyclohexyl)-3H,4H-pyrido[2,3-d]pyrimidin-2-yl]-2-(3,5-difluorophenyl)ethyl]-2-[(2S,4R)-9-(difluoromethyl)-5,5-difluoro-7,8-diazatricyclo[4.3.0.0^2,^4]nona-1(6),8-dien-7-yl]acetamide]	> 20	0.017
CCOCCn1nc(NS(C)(=O)=O)c2c(Cl)ccc(-n3c([C@H](Cc4cc(F)cc(F)c4)NC(=O)Cn4nc(C(F)F)c5c4C(F)(F)[C@@H]4C[C@H]54)nc4nc(C5CCC(F)(F)CC5)cc(C)c4c3=O)c21 (atropisomer, axis not shown; (P)) [Example 60, N-[(1S)-1-[(3P)-3-[4-chloro-1-(2-ethoxyethyl)-3-methanesulfonamido-1H-indazol-7-yl]-7-(4,4-difluorocyclohexyl)-5-methyl-4-oxo-3H,4H-pyrido[2,3-d]pyrimidin-2-yl]-2-(3,5-difluorophenyl)ethyl]-2-[(2S,4R)-9-(difluoromethyl)-5,5-difluoro-7,8-diazatricyclo[4.3.0.0^2,^4]nona-1(6),8-dien-7-yl]acetamide]	> 50	0.012
Cc1cc(C2CCC(F)(F)CC2)nc2nc([C@H](Cc3cc(F)cc(F)c3)NC(=O)Cn3nc(C4CC4)c4c3C[C@@H]3C[C@H]43)n(-c3ccc(Cl)c4c(NS(C)(=O)=O)nn(CCN5CCOC(C)(C)C5)c34)c(=O)c12 (atropisomer, axis not shown; (P)) [Example 480, N-[(1S)-1-[(3P)-3-{4-chloro-1-[2-(2,2-dimethylmorpholin-4-yl)ethyl]-3-methanesulfonamido-1H-indazol-7-yl}-7-(4,4-difluorocyclohexyl)-5-methyl-4-oxo-3H,4H-pyrido[2,3-d]pyrimidin-2-yl]-2-(3,5-difluorophenyl)ethyl]-2-[(2S,4S)-9-cyclopropyl-7,8-diazatricyclo[4.3.0.0^2,^4]nona-1(6),8-dien-7-yl]acetamide]	> 20	0.005
CS(=O)(=O)Nc1nn(CCN2CC[C@H](F)C2)c2c(-n3c([C@H](Cc4cc(F)cc(F)c4)NC(=O)Cn4nc(C(F)F)c5c4C(F)(F)[C@@H]4C[C@H]54)nc4nc(C5CCC(F)(F)CC5)ccc4c3=O)ccc(Cl)c12 (atropisomer, axis not shown; (P)) [Example 207, N-[(1S)-1-[(3P)-3-(4-chloro-1-{2-[(3S)-3-fluoropyrrolidin-1-yl]ethyl}-3-methanesulfonamido-1H-indazol-7-yl)-7-(4,4-difluorocyclohexyl)-4-oxo-3H,4H-pyrido[2,3-d]pyrimidin-2-yl]-2-(3,5-difluorophenyl)ethyl]-2-[(2S,4R)-9-(difluoromethyl)-5,5-difluoro-7,8-diazatricyclo[4.3.0.0^2,^4]nona-1(6),8-dien-7-yl]acetamide]	> 50	0.013
Cc1cc(C2(F)CCC(F)(F)CC2)nc2nc([C@H](Cc3cc(F)cc(F)c3)NC(=O)Cn3nc(C(F)F)c4c3C[C@@H]3C[C@H]43)n(-c3ccc(Cl)c4c(NS(C)(=O)=O)nn(CCN5C[C@@H](C)O[C@@H](C)C5)c34)c(=O)c12 (atropisomer, axis not shown; (P)) [Example 596, N-[(1S)-1-[(3P)-3-(4-chloro-1-{2-[(2R,6S)-2,6-dimethylmorpholin-4-yl]ethyl}-3-methanesulfonamido-1H-indazol-7-yl)-5-methyl-4-oxo-7-(1,4,4-trifluorocyclohexyl)-3H,4H-pyrido[2,3-d]pyrimidin-2-yl]-2-(3,5-difluorophenyl)ethyl]-2-[(2S,4S)-9-(difluoromethyl)-7,8-diazatricyclo[4.3.0.0^2,^4]nona-1(6),8-dien-7-yl]acetamide]	> 20	0.029
COCCCn1nc(NS(C)(=O)=O)c2c(Cl)ccc(-n3c([C@H](Cc4cc(F)cc(F)c4)NC(=O)Cn4nc(C(F)F)c5c4C(F)(F)[C@@H]4C[C@H]54)nc4nc(C5CCC(F)(F)CC5)cc(CN5C[C@H](F)C[C@H](F)C5)c4c3=O)c21 (atropisomer, axis not shown; (P)) [Example 488, N-[(1S)-1-[(3P)-3-[4-chloro-3-methanesulfonamido-1-(3-methoxypropyl)-1H-indazol-7-yl]-7-(4,4-difluorocyclohexyl)-5-{[(3R,5S)-3,5-difluoropiperidin-1-yl]methyl}-4-oxo-3H,4H-pyrido[2,3-d]pyrimidin-2-yl]-2-(3,5-difluorophenyl)ethyl]-2-[(2S,4R)-9-(difluoromethyl)-5,5-difluoro-7,8-diazatricyclo[4.3.0.0^2,^4]nona-1(6),8-dien-7-yl]acetamide]	> 20	0.009
Cc1cc(C2CCC(F)(F)CC2)nc2nc([C@H](Cc3cc(F)cc(F)c3)NC(=O)Cn3nc(C4CC4)c4c3C[C@@H]3C[C@H]43)n(-c3ccc(Cl)c4c(NS(C)(=O)=O)nn([C@H](C)CN5C[C@H](F)C[C@H](F)C5)c34)c(=O)c12 (relative stereo) [Example 732, N-[(1S)-1-[(3P)-3-{4-chloro-1-[(2R)-1-[(3R,5S)-3,5-difluoropiperidin-1-yl]propan-2-yl]-3-methanesulfonamido-1H-indazol-7-yl}-7-(4,4-difluorocyclohexyl)-5-methyl-4-oxo-3H,4H-pyrido[2,3-d]pyrimidin-2-yl]-2-(3,5-difluorophenyl)ethyl]-2-[(2R*,4R*)-9-cyclopropyl-7,8-diazatricyclo[4.3.0.0^2,^4]nona-1(6),8-dien-7-yl]acetamide]	> 20	0.013
